The test system of assay [1] is withdrawal reflex of the rat tail (tail flick) in response to a radiant heat beam. The assay can be described thus: Low-intensity tail flick test (rat). Format: in vivo. The note with it: po, peroral, read-out: Low intensity tail flick, rat, peroral, % MPE (dose [mg/kg]). On the procedure:
(§1) [formula] increases dose dependently. Calculations of EC50 and IC50 values are carried out with the aid of ‘Prism v4.0’ software (GraphPad Software™) Method II. Low-Intensity Tail Flick Test (Rat)
In the low-intensity tail flick test, the determination of the antinociceptive effect of the compounds according to the invention towards an acute noxious thermal stimulus is carried out by measuring the withdrawal reflex of the rat tail (tail flick) in response to a radiant heat beam (analgesia meter; model 2011 of the company Rhema Labortechnik, Hofheim, Germany) according to the method described by D'Annour and Smith (J. Pharm. Exp. Ther. 72, 74 79 (1941). To this end, the rats were placed in a plexiglas restrainer, and a low-intensity radiant heat beam (48° C.) was focused onto the dorsal surface of the tail root. The stimulus intensity was adjusted to result in a mean pre-drug control withdrawal latency of about 7 s, thus also allowing a supraspinal modulation of the spinally mediated acute nociceptive reflex. A cutoff time of 30 s was applied to avoid tissue damage. Male Sprague-Dawley rats (Janvier, Le Genest St. Isle, Frankreich) with weights of 200-250 g were used. 10 rats were used per group. Before administration of a compound according to the invention, the animals were pre-tested twice in the course of five minutes and the mean of these measurements was calculated as the pre-test mean. The antinociceptive effect was determined at 20, 40 and 60 min after peroral compound administration. The antinociceptive effect was calculated based on the increase in the tail withdrawal latency according to the following formula and is expressed as percentage of the maximum possible effect (MPE [%]): MPE=[(T1−T0)/(T2−T0)]*100
In this, T0 is the control latency time before and T1 the latency time after administration of the compound, T2 is the cutoff time and MPE is the maximum possible effect. Employing variant analysis (repeated measures ANOVA) allowed testing of statistically significant differences between the compounds according to the invention and the vehicle group. The significance level was set to p≦0.05. To determine the dose dependency, the particular compound according to the invention was administered in 3-5 logarithmically increasing doses, including a threshold dose and a maximum effective dose, and the ED50 values were determined with the aid of regression analysis. The ED50 calculation was performed at the time of maximum efficacy (usually 20 min after administration of the compounds).

The target of a further assay is T1, KCNQ2/3 channels (Homo sapiens, UniProt O43525+O43526).
T1 construct: expressed in transfected cells
In words: Fluorescence assay using a voltage sensitive dye (fluorimetry). It is filed as cell-based. Conditions: CHO-K1 cells expressing KCNQ2/3 channels; for Emax: relative to retigabine = 100%, read-out: Fluorimetry % efficacy (retigabine = 100%). The method, then: Method I. Fluorescence Assay Using a Voltage Sensitive Dye (Fluorimetry)
[…] CHO-K1 cells expressing KCNQ2/3 channels are cultivated adherently at 37° C., 5% CO2 and 95% humidity in cell culture bottles (e.g. 80 cm^2 TC flasks, Nunc) with DMEM-high glucose (Sigma Aldrich, D7777) including 10% FCS (PAN Biotech, e.g. 3302-P270521) or alternatively MEM Alpha Medium (1×, liquid, Invitrogen, #22571), 10% fetal calf serum (FCS) (Invitrogen, #10270-106, heat-inactivated) and the necessary selection antibiotics.
Before being sown out for the measurements, the cells are washed with 1×DPBS buffer Ca^2+/Mg^2+-free (e.g. Invitrogen, #14190-094) and detached from the bottom of the culture vessel by using Accutase (PAA Laboratories, #L11-007) (incubation with Accutase for 15 min at 37° C.). The cell number is determined using a CASY™ cell counter (TCC, Schärfe System). Depending on the optimal density for each individual cell line, 20,000-30,000 cells/well/100 μl are seeded onto 96-well Corning™ CellBIND™ assay plates (Flat Clear Bottom Black Polystyrene Microplates, #3340). Freshly seeded cells are then left to settle for one hour at room temperature, followed by incubation for 24 hours at 37° C., 5% CO2 and 95% humidity.
The voltage-sensitive fluorescent dye from the Membrane Potential Assay Kit (Red™ Bulk format part R8123 for FLIPR, MDS Analytical Technologies™) is prepared by dissolving the contents of one vessel Membrane Potential Assay Kit Red Component A in 200 ml of extracellular buffer (ES buffer, 120 mM NaCl, 1 mM KCl, 10 mM HEPES, 2 mM CaCl2, 2 mM MgCl2, 10 mM glucose; pH 7.4). After removal of the nutrient medium, the cells are washed once with 200 μl of ES buffer, then loaded for 45 min at room temperature in 100 μl of dye solution in the dark.
Fluorescence measurements are carried out in a BMG Labtech FLUOstar™, BMG Labtech NOVOstar™ or BMG Labtech POLARstar™ instrument (525 nm excitation, 560 nm emission, Bottom Read mode). After incubation with the dye, 50 μl of the test substances in the desired concentrations, or 50 μl of ES buffer for control purposes, are applied to the wells of the assay plate and incubated for 30 min at room temperature while being shielded from light. The fluorescence intensity of the dye is then measured for 5 min and the fluorescence value F1 of each well is thus determined at a given, constant time. 15 μl of a KCl solution are then added to each well (final concentration of potassium ions 92 mM). The change in fluorescence intensity is subsequently monitored until all the relevant values have been obtained (mainly 5-30 min). At a given time post KCl application, a fluorescence value F2 is determined, in this case at the time of the fluorescence peak.
For calculation, the fluorescence intensity F2 is corrected for the fluorescence intensity F1, and the activity (ΔF/F) of the target compound on the potassium channel is determined as follows:
In order to determine whether a substance has agonistic activity,
[formula] can be related to
[formula] of control wells.
[formula] is determined by adding to the well only the buffer solution instead of the test substance, determining the value F1K of the fluorescence intensity, adding the potassium ions as described above, and measuring a value F2K of the fluorescence intensity. F2K and F1K are then calculated as follows: […]
A substance has an agonistic activity on the potassium channel if
[formula] is greater than
Independently of the comparison of
[formula] it is possible to conclude that a target compound has agonistic activity if
as §1

What is called EC50 is the concentration needed to bring the measured effect to its halfway point. A low value points to higher potency in that assay. For `Cc1c(C(=O)NCc2cccc(F)c2)c(C2CC2)nc2cc(C(F)(F)F)ccc12` [Example 10, 2-Cyclopropyl-N-[(3-fluorophenyl)-methyl]-4-methyl-7-(trifluoromethyl)-quinoline-3-carboxylic acid amide], the inhibition in vivo at 6.81 mg/kg in assay [1] turned out to be 43%. Besides, at KCNQ2/3 channels, the EC50 was found to be 91 nM and the Emax is 182%.
For `Cc1c(C(=O)NCc2ccc(F)cc2)c(C(C)C)nc2cc(C(F)(F)F)ccc12` [Example 7, N-[(4-Fluorophenyl)-methyl]-2-isopropyl-4-methyl-7-(trifluoromethyl)-quinoline-3-carboxylic acid amide], in assay [1], the inhibition in vivo at 10 mg/kg came to 54%. For the same compound, on KCNQ2/3 channels, the concentration for a half-maximal effect (EC50) came to 65 nM and the Emax came to 181%.
`COCc1nc2cc(C(F)(F)F)ccc2c(C)c1C(=O)NCc1ccc(F)cc1` [Example 16, N-[(4-Fluorophenyl)-methyl]-2-(methoxymethyl)-4-methyl-7-(trifluoromethyl)-quinoline-3-carboxylic acid amide]: the inhibition in vivo at 10 mg/kg in assay [1] was 21%. Further, on KCNQ2/3 channels, the midpoint of the response, the EC50, lay at 393 nM and the Emax was found to be 96%.
In the case of `CCc1nc2cc(C(F)(F)F)ccc2c(C)c1C(=O)NCc1cccc(F)c1` [Example 6, 2-Ethyl-N-[(3-fluorophenyl)-methyl]-4-methyl-7-(trifluoromethyl)-quinoline-3-carboxylic acid amide], in assay [1], the inhibition in vivo at 6.81 mg/kg is 51%. On KCNQ2/3 channels, a half-maximal effect (EC50) was put at 178 nM and the Emax was determined as 177%.
As for `Cc1c(C(=O)NCc2cccc(F)c2)c(C(C)C)nc2cc(C(F)(F)F)ccc12` [Example 8, N-[(3-Fluorophenyl)-methyl]-2-isopropyl-4-methyl-7-(trifluoromethyl)-quinoline-3-carboxylic acid amide], in assay [1], the inhibition in vivo at 10 mg/kg came out at 65%. Further, at KCNQ2/3 channels, the concentration for a half-maximal effect (EC50) was found to be 53 nM and the Emax turned out to be 185%.
The like results for `Cc1c(C(=O)NCc2ccc(F)cc2)c(C2CC2)nc2cc(C(F)(F)F)ccc12` [Example 9, 2-Cyclopropyl-N-[(4-fluorophenyl)-methyl]-4-methyl-7-(trifluoromethyl)-quinoline-3-carboxylic acid amide] were, in that order, 15%, 126 nM and 161%.
In the case of `COCc1nc2cc(C(F)(F)F)ccc2c(C)c1C(=O)NCc1cccc(F)c1` [Example 15, N-[(3-fluorophenyl)-methyl]-2-(methoxymethyl)-4-methyl-7-(trifluoromethyl)-quinoline-3-carboxylic acid amide], the inhibition in vivo at 10 mg/kg in assay [1] was 9%. Further, at KCNQ2/3 channels, the 50% effective concentration (EC50) came out at 635 nM and the Emax stood at 117%.
`CCCc1nc2cc(C(F)(F)F)ccc2c(C)c1C(=O)NCc1ccc(F)cc1` [Example 3, N-[(4-fluorophenyl)-methyl]-4-methyl-2-propyl-7-(trifluoromethyl)-quinoline-3-carboxylic acid amide]: the inhibition in vivo at 10 mg/kg in assay [1] was 51%. At KCNQ2/3 channels, the response was half-maximal at 43 nM (EC50) and the Emax was determined as 126%.
`CCc1nc2cc(C(F)(F)F)ccc2c(C)c1C(=O)NCc1ccc(F)cc1` [Example 5, 2-Ethyl-N-[(4-fluorophenyl)-methyl]-4-methyl-7-(trifluoromethyl)-quinoline-3-carboxylic acid amide]: on KCNQ2/3 channels, the EC50 was 266 nM and the Emax came to 157%.
On to `Cc1c(C(=O)NCc2ccc(F)cc2)c(C2CC2)nc2cc(C#N)ccc12` [Example 38, 7-cyano-2-cyclopropyl-N-[(4-fluorophenyl)-methyl]-4-methyl-quinoline-3-carboxylic acid amide], for which, on KCNQ2/3 channels, a half-maximal response (EC50) required 118 nM and the Emax is 122%.
For `Cc1c(C(=O)NCc2ccc(F)cc2)c(C2CCCC2)nc2cc(C(F)(F)F)ccc12` [Example 21, 2-Cyclopentyl-N-[(4-fluorophenyl)-methyl]-4-methyl-7-(trifluoromethyl)-quinoline-3-carboxylic acid amide], in that order: 223 nM and 178%.

Values taken from patent US8445512B2, “Substituted quinoline-3-carboxamides as KCNQ2/3 modulators” (Gruenenthal GmbH, priority 2010, dated 2013).
